The values below come from patent publication US10357501B2, “Treating conditions associated with increased eotaxin with 25-hydroxyvitamin D3” (DSM IP ASSETS B.V., priority 2010, dated 2019).

The conditions of data set [1]: in vivo; cited from earlier work.
For data set [2] the following is noted: considered; no test described; cited from earlier work.
A short description of data set [3]: Clinical trial: 25(OH)D levels after oral supplementation. The note with it: female, human, in vivo. Here is the method:
The objective was studying and comparing the pharmacokinetic characteristics of vitamin D3 and 25-hydroxyvitamin D3 administered to humans. Equimolar quantities of both substances were investigated. The regimen was based on 20 μg/day (or its equivalent on a weekly basis) of 25-hydroxyvitamin D3. For comparative purposes, it was necessary to administer equimolar quantities of either vitamin D3 or 25-hydroxyvitamin D3. In respect to administration of vitamin D3, the dose was considered to be sufficient to overcome background variability and provide and efficacious dose to the participants. […]
Plasma concentrations of 25-hydroxyvitamin D3 (e.g., peak and steady state) were determined by obtaining samples from the subjects at various times after the dosage was ingested. For screening purposes and to establish baseline values, a blood sample was obtained prior to enrollment into the study and the clinical laboratory measured vitamin D3, 25-hydroxyvitamin D3, calcium, creatinine, albumin, and fasting glucose in the serum. […]
Twenty healthy postmenopausal women with 25-Hydroxyvitamin D3 levels below 25 ng/ml and a mean age of 61.5 years (SD ±7.2) were enrolled in this study. […] On 14 visits over 4 months, 25(OH)D levels, and 7 inflammation markers (eotaxin, IL-8, IL-12, IP-10, MCP-1, MP-1β, RANTES) were measured. […]

For data set [4] the following is noted: ingestion of 250 μg/day as a dietary supplement; cited from earlier work.

As to 25-hydroxyvitamin D, the “blood concentration at which hypercalcemia may occur” value in data set [1] is listed as “greater than 375 nmol/L”. Regarding `C=C1CC[C@H](O)C/C1=C/C=C1\CCC[C@]2(C)[C@@H]([C@H](C)CCCC(C)(C)O)CC[C@@H]12` [25-Hydroxyvitamin D3, 25-hydroxyvitamin D3], the “activity relative to Vitamin D3” value in data set [2] is on record as “approximately 3 ×”. Regarding `C=C1CC[C@H](O)C/C1=C/C=C1\CCC[C@]2(C)[C@@H]([C@H](C)CCCC(C)C)CC[C@@H]12` [Vitamin D3, cholecalciferol], the “Mean 25(OH)D levels” value in data set [3] came to 13.5 ng/mL. On to Vitamin D, for which, in data set [4], the “blood concentration of 25-hydroxyvitamin D” value is recorded as “about 200 nmol/L”.
